Where “and” joins values, the source holds several entries; their conditions need not be identical. Equal entries are not always repeated. Blank lines part the entries; values can stand above or below the molecule they belong to.
Key:
platelets = assay: Aggregometric assay with washed platelets; assay type: cell-based, human
Description: The presence of protein(s) and/or peptide(s) with amyloid-like misfolded protein conformation on activated blood platelets was tested with washed platelets in an aggregometric assay. Freshly drawn human aspirin free blood was mixed gently with citrate buffer to avoid coagulation. Blood was spinned for 15 minutes at 150*g at 20° C. and supernatant was collected; platelet rich plasma (PRP). […] After spinning down the platelets upon centrifugation for 15 minutes at 330*g at 20° C., the pellet was resuspended in HEPES-Tyrode buffer pH 6.5. Prostacyclin was added to a final concentration of 10 ng/ml, and the solution was centrifuged for 15 minutes at 330*g at 20° C., with a soft brake. The pellet was resuspended in HEPES-Tyrode buffer pH 7.2 in a way that the final platelet number was adjusted to 200,000/μl. Platelets were kept at 37° C. for at least 30 minutes, before use in the assays, to ensure that they were in the resting state.
For the aggregometric assays, 400 μl platelet solution was added to a glass tube with 100 μl containing the agonist of interest, fibrinogen and CaCl2. Final concentrations of fibrinogen and CaCl2 were 0.5 mg/ml and 3 mM, respectively. A stirring magnet was added and the apparatus (Whole-blood aggregometer, Chrono-log, Havertown, Pa., USA) was blanked. Aggregation was followed in time by measuring the absorbance of the solution, that will decrease in time upon platelet aggregation. As a positive control, 0.5 U/ml thrombin was used, or TRAP. Aggregation was followed for 10 minutes. Influence of 200 μM Thioflavin T, 200 μM Congo red or 1 μM tPA on platelet aggregation was analyzed.

[1] = target: T1, LRP cl-IV binding to BSA-AGE (Bos taurus, UniProt P02769); assay: ELISA, interference with LRP cl-IV binding to BSA-AGE; set-up: species or system human; details: concentration series, 50 times diluted LRP cl-IV medium
T1 construct: made in house; host or cells: HEK293E/S (LRP cl-IV, culture supernatant)
Description: To test whether amyloid-like crossbeta structure binding compounds tPA, Congo red, Thioflavin T and Thioflavin S interfere with LRP cl-IV binding to BSA-AGE, concentration series of the potential inhibitory amyloid binding moieties were tested in the presence of 50 times diluted medium containing LRP cl-IV. The following inhibitors were used: tPA, Congo red, Thioflavin T (ThT) and Thioflavin S (ThS). As a control to tPA, K2P tPA, which lacks the amyloid-like misfolded protein binding finger domain, was included in the analyses. The influence of tPA and K2P tPA was tested in the presence of 10 mM ε-amino caproic acid to avoid binding of the kringle2 domain of tPA and K2P tPA to lysine- and arginine residues. Binding buffer and K2P tPA serve as negative controls in these inhibition studies. The concentration series was measured in triplicate, the values averaged and standard deviations calculated. Background signals obtained with buffer-coated wells were subtracted. Signals obtained with binding of LRP cluster IV to BSA-AGE was set arbitrarily to a reference binding of 100% and signals obtained with the concentration series of misfolded protein binding moieties and K2P tPA were calculated based on this set reference.

[2] = system: tPA binding to amyloid-like aggregates; details: ELISAs; patent application P57716EP00 and unpublished data; cited from earlier work
[3] = Congo red fluorescence of protein solutions; assay type: physicochemical
Description: Background signals from buffer, buffer with Congo red and protein/peptide solution without Congo red were subtracted from corresponding measurements with protein solution incubated with Congo red. Fluorescence was measured in triplicate on a Hitachi F-4500 fluorescence spectrophotometer (Ltd., Tokyo, Japan).
(§1) Formulated protein therapeutics were obtained from the local hospital pharmacy and were used as supplied by the manufacturers. […] Lyophilized therapeutics were dissolved according to the manufacturers recommendations. GH, zinc-insulin, Cealb and gelatin were stored at −20, 4, room temperature, 37 and 65° C. Other protein therapeutics were only kept at 4° C., and assayed for the presence of cross-β structure at shown time points. Enhancement in fluorescence of ThT and Congo red was measured with all formulated protein therapeutics. For this purpose, proteins were diluted to the indicated concentrations. […] Zinc-insulin was diluted tenfold in the activation assay, GH was diluted to a final concentration of 500 μg ml^−1. Activation of factor XII and prekallikrein by the therapeutics was tested in the chromogenic factor XII assay (see above). […] After coating, plates were blocked with Blocking Reagent (Roche Diagnostics, Almere, The Netherlands).

factor XII = target: T2, factor XII (Homo sapiens, UniProt P00748); assay: Factor XII / prekallikrein activation assay (Chromozym-PK); assay type: biochemical
T2 construct: purified human factor XII from plasma (Calbiochem); purchased Calbiochem; host or cells: human plasma
T2 sequence (P00748 20-615): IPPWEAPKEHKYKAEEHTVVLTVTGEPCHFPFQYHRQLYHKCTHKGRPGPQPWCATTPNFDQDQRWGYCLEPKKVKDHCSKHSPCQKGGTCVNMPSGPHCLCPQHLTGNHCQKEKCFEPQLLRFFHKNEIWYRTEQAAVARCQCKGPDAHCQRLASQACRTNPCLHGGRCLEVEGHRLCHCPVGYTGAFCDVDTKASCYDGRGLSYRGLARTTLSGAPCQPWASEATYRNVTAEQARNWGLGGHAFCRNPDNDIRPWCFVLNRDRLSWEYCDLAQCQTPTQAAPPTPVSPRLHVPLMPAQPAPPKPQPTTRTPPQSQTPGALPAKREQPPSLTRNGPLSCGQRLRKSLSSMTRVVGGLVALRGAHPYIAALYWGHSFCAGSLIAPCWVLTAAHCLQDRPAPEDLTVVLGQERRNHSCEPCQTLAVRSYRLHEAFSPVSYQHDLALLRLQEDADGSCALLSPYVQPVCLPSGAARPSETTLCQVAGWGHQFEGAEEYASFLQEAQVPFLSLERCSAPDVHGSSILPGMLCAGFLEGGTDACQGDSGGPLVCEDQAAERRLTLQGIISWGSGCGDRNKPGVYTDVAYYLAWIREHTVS
Description: Plasmin (Pls) activity was assayed as described^16. Peptides and proteins that were tested for their stimulatory ability were regularly used at 100 μg ml^−1. […] Chromogenic substrate S-2251 (Chromogenix, Instrumentation Laboratory SpA, Milano, Italy) was used to measure Pls activity. Conversion of zymogen factor XII (#233490, Calbiochem, EMD Biosciences, Inc., San Diego, Calif.) to proteolytically active factor XII (factor XIIa) was assayed by measurement of the conversion of chromogenic substrate Chromozym-PK (Roche Diagnostics, Almere, The Netherlands) by kallikrein. Chromozym-PK was used at a concentration of 0.3 mM. Factor XII, human plasma prekallikrein (#529583, Calbiochem) and human plasma cofactor high-molecular weight kininogen (#422686, Calbiochem) were used at concentrations of 1 μg ml^−1. […] Assays were performed using microtiter plates (Costar, Cambridge, Mass., USA). Peptides and proteins were tested for their ability to activate factor XII. […] The conversion of Chromozym-PK was recorded kinetically at 37° C. for at least 60 minutes. […]
Formulated protein therapeutics were obtained from the local hospital pharmacy and were used as supplied by the manufacturers. […] Enhancement in fluorescence of ThT and Congo red was measured with all formulated protein therapeutics. […]

tPA [4] = target: T3, tPA (Homo sapiens, UniProt P00750); assay: tPA ELISA with coated protein therapeutics; assay type: binding; details: ELISA, stored at the recommended temperature of 4° C.
Description: as §1

tPA [5] = target: T3, tPA; assay: Plasminogen-activation assay (tPA activation, S-2251); assay type: biochemical; details: 100 μg ml^−1
Description: Plasmin (Pls) activity was assayed as described^16. Peptides and proteins that were tested for their stimulatory ability were regularly used at 100 μg ml^−1. […] Chromogenic substrate S-2251 (Chromogenix, Instrumentation Laboratory SpA, Milano, Italy) was used to measure Pls activity. Conversion of zymogen factor XII (#233490, Calbiochem, EMD Biosciences, Inc., San Diego, Calif.) to proteolytically active factor XII (factor XIIa) was assayed by measurement of the conversion of chromogenic substrate Chromozym-PK (Roche Diagnostics, Almere, The Netherlands) by kallikrein. Chromozym-PK was used at a concentration of 0.3 mM. Factor XII, human plasma prekallikrein (#529583, Calbiochem) and human plasma cofactor high-molecular weight kininogen (#422686, Calbiochem) were used at concentrations of 1 μg ml^−1. […] Assays were performed using microtiter plates (Costar, Cambridge, Mass., USA). Peptides and proteins were tested for their ability to activate factor XII. 150 μg ml^−1 kaolin, an established activator of factor XII was used as positive control and solvent (H2O) as negative control. The conversion of Chromozym-PK was recorded kinetically at 37° C. for at least 60 minutes. Assays were done in duplicate.
as §1
To prepare structurally altered ovalbumin (OVA) with amyloid cross-β structures, purified OVA (Sigma, A-7641, lot 071k7094) was heated to 85° C. One mg ml^−1 OVA in 67 mM NaPi buffer pH 7.0, 100 mM NaCl, was heated for two cycles in PCR cups in a PTC-200 thermal cycler (MJ Research, Inc., Waltham, Mass., USA). In each cycle, OVA was heated from 30 to 85° C. at a rate of 5° C./min. Native OVA (nOVA) and heat-denatured OVA (dOVA) were tested in the ThT fluorescence assay and in the Plg-activation assay. In the fluorescence assay and in the Plg-activation assay, 25 and 100 μg ml^−1 nOVA and dOVA were tested, respectively. TEM images of nOVA and dOVA were taken to check for the presence of large aggregates.
MSA (#126674, Calbiochem) was dissolved in 8 M urea, 100 mM Tris-HCl pH 8.2, at 10 mg ml^−1 final concentration. Dithiothreitol (DTT) was added to a final concentration of 10 mM. Air was replaced by N2 and the solution was incubated for 2 h at room temperature. Then, the solution was transferred to ice and iodoacetamide was added from a 1 M stock to a final concentration of 20 mM. […] Alkyl-MSA was dialyzed against H2O before use. […] In the ThT-fluorescence assay 25 μg ml^−1 nMSA and alkyl-MSA were tested, and in the Plg-activation assay 100 μg ml^−1 was tested. The presence of aggregates or fibrils was analyzed using TEM.
Lyophilized sterile glucagon was dissolved at 1 mg ml^−1 in H2O with 10 mM HCl. The solution was subsequently kept at 37° C. for 24 h, at 4° C. for 14 days and again at 37° C. for 9 days. […] TEM analysis was performed to assess the presence of large multimeric structures.

Fn F4-5 = target: T4, Fn F4-5 (Homo sapiens, UniProt P02751); assay: Biacore surface plasmon resonance, binding to immobilized Fn F4-5
T4 construct: amino-acids NH2—I182-V276-COOH of Fn F4-5; made in house; host or cells: Saccharomyces cerevisiae
Description: Binding of cross-β structure containing peptides/proteins was studied using surface plasmon resonance technology with a Biacore 2000 apparatus (Biacore AB, Uppsala, Sweden). A standardized amine coupling procedure was used to couple proteins with F domains to a CM5 chip (Biacore AB, Uppsala, Sweden). First, the dextran surface of the chips was activated by a 35 μl injection with a 1:1 mixture of 0.1 M N-hydroxysuccinimide (NHS) and 0.4 M N-ethyl-N′-(dimethylaminopropyl)carbodiimide (EDC) at a flow rate of 5 μl min.^−1. Then, the proteins were covalently coupled to the activated dextran surface. Remaining activated groups in each of the four flow channels were blocked by injection of 35 μl of 1 M ethanolamine hydrochloride pH 8.5. EDC, NHS and ethanolamine hydrochloride were obtained from Biacore. On one chip, on channels 1 to 4, buffer (reference channel), the soluble extracellular part of receptor for advanced glycation endproducts (sRAGE), tPA and K2P-tPA were immobilized. […] Binding of albumin-AGE was determined with a solution of 3.9 μg ml^−1 albumin-AGE in running buffer. albumin-AGE was filtered on a Millex-GV 0.22 μm filter unit (Millipore). […] Binding of Hb-AGE was also tested after centrifugation for 10 min. at 16,000*g alternative to filtration. tPA activation before and after filtration was assessed with a Plg-activation assay. […]

T4 sequence (P02751 182-276): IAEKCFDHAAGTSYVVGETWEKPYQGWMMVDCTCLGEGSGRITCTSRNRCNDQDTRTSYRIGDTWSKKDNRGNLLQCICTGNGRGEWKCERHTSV
T3 sequence (P00750 36-562): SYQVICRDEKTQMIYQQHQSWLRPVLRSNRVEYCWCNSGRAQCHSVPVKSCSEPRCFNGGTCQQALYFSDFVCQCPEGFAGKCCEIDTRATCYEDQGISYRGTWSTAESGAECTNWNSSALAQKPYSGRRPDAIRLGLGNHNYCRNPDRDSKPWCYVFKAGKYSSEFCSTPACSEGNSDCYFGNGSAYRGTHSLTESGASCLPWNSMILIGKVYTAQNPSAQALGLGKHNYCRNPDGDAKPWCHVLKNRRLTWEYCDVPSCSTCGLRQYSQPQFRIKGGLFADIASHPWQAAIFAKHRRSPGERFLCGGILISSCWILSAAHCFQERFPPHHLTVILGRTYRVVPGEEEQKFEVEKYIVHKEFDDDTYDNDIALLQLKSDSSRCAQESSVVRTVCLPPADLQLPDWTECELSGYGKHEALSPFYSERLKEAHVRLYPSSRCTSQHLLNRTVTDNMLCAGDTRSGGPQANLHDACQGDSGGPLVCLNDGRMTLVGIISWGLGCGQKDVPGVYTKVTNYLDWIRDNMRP
T1 sequence (P02769 25-607): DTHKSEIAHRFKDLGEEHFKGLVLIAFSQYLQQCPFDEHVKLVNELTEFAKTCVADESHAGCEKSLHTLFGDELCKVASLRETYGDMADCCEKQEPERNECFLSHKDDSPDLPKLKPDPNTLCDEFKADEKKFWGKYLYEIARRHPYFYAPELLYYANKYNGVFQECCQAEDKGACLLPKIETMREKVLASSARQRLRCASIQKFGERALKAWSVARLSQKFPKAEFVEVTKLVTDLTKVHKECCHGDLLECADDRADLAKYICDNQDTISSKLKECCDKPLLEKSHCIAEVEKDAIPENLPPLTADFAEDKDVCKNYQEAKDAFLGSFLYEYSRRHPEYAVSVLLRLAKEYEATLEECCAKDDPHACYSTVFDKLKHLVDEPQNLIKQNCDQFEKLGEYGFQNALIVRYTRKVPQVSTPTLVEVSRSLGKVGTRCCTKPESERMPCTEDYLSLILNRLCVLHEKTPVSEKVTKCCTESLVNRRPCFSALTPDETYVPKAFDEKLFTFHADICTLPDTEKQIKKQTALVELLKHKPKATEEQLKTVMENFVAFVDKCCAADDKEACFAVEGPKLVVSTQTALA

Molecule: Nc1c(/N=N/c2ccc(-c3ccc(/N=N/c4cc(S(=O)(=O)O)c5ccccc5c4N)cc3)cc2)cc(S(=O)(=O)O)c2ccccc12 [Congo red]
inhibition at 200 µM (platelets; Homo sapiens, Platelet, 200 μM, read-out: inhibition of platelet aggregation): ≤ 30%
influence on binding of LRP cl-IV to BSA-AGE [1]: inhibit binding of LRP cl-IV to BSA-AGE to a large extent
competition for tPA binding to amyloid-like aggregates [2]: can efficiently compete for tPA binding

activation of factor XII (factor XII; kept at 37° C.): activated factor XII
activation of the factor XII/prekallikrein contact system (factor XII; stored at 4° C.): not
binding of tPA (tPA [4]): binding of tPA was established
Molecule: Gelatin
enhancement of Congo red fluorescence ([3]; stored at 4° C. and 37° C.): enhanced Congo red fluorescence in a storage temperature dependent manner
enhancement of Congo red fluorescence ([3]; stored at the recommended storage temperature of 4° C.): enhanced the fluorescence of Congo red

tPA activating properties (tPA [5]): absence of tPA activating properties
binding to the Fn F4-5 doublet (Fn F4-5; Biacore, native Hb at 25 nM): bound
Kd (Fn F4-5; immobilized Fn F4-5, Biacore CM5 chip, read-out: concentration of ligand that results in half maximum binding to Fn F4-5): ≤ 800 nM and 800 nM
Molecule: endostatin

Molecule: tPA: tissue-type plasminogen activator
inhibition of thrombin-induced aggregation (platelets; 1 μM): 55%
